Data from ChEMBL document CHEMBL6078706, “Deciphering the Comprehensive Structure-Activity Relationship of Sunshinamide for Breast Cancer Therapy through Dual Modulation of Apoptotic and Ferroptotic Pathways via TrxR1 and Gpx4 Inhibition” (J Med Chem, 2024).
Active and inactive are the calls of the source. No cut-off for these calls is given here.

How the values were obtained:
MDA-MB-468 [1] = experiment: Antiproliferative activity against human MDA-MB-468 cells assessed as cell viability at 10 nM incubated for 48 hrs by MTT assay; assay type: functional, cell-based
HEK293 = experiment: Antiproliferative activity against human HEK293 cells assessed as cell viability at 10 nM incubated for 48 hrs by MTT assay; assay type: toxicity, cell-based; conditions: hek293, 48 h, 0.01 µM
MDA-MB-468 [2] = experiment: Induction of ROS production in human MDA-MB-468 cells assessed as increase in ROS level at 25 nM incubated for 6 hrs by DCFH-DA staining based confocal microscopic analysis; assay type: functional, cell-based
MDA-MB-468 [3] = experiment: Induction of ROS production in human MDA-MB-468 cells assessed as increase in fluorescent signal at 25 nM incubated for 6 hrs in presence of N-acetyl cysteine by DCFH-DA staining based flow cytometry analysis; assay type: functional, cell-based
MDA-MB-468 [4] = experiment: Antiproliferative activity against human MDA-MB-468 cells assessed as reduction in cell viability at 50 nM incubated for 48 hrs in presence of N-acetyl cysteine by MTT assay; assay type: functional, cell-based
MDA-MB-468 [5] = experiment: Induction of endoplasmic reticulum (ER) stress-mediated apoptosis in human MDA-MB-468 cells assessed as increase in CHOP expression at 25 nM measured at 2 hrs by Western blot analysis; assay type: functional, cell-based
MDA-MB-468 [6] = experiment: Induction of apoptosis in human MDA-MB-468 cells assessed as increase in cleaved PARP level at 25 nM measured after 48 hrs by Western blot analysis; assay type: functional, cell-based
MDA-MB-468 [7] = experiment: Induction of apoptosis in human MDA-MB-468 cells assessed as increase in cleaved caspase 3 level at 25 nM measured after 48 hrs by Western blot analysis; assay type: functional, cell-based
MDA-MB-468 [8] = experiment: Induction of apoptosis in human MDA-MB-468 cells assessed as increase in caspase 3/7 activation at 25 nM measured at 4 hrs by Western blot analysis; assay type: functional, cell-based
MDA-MB-468 [9] = experiment: Induction of apoptosis in human MDA-MB-468 cells assessed as increase in activation of caspase at 25 nM by Western blot analysis; assay type: functional, cell-based; conditions: time 24.0 hrs
MDA-MB-468 [10] = experiment: Antiproliferative activity against human MDA-MB-468 cells assessed as reduction in cell viability at 50 nM incubated for 48 hrs in presence of Z-VAD by MTT assay; assay type: functional, cell-based
MDA-MB-468 [11] = experiment: Induction of mitochondrial dysfunction in human MDA-MB-468 cells assessed as reduction in oxygen consumption rate (OCR) at 25 nM; assay type: functional, cell-based
4T1 [12] = experiment: Antitumor activity against mouse 4T1 cells implanted in female BALB/c mouse assessed as reduction in tumor volume at 10 mg/kg, iv administered upto 5 days; assay type: functional, organism-based; conditions: time <= 5.0 day
4T1 [13] = experiment: Antitumor activity against mouse 4T1 cells implanted in female BALB/c mouse assessed as reduction in tumor weight at 10 mg/kg, iv administered upto 5 days; assay type: functional, organism-based; conditions: time <= 5.0 day
4T1 [14] = experiment: Antitumor activity against mouse 4T1 cells implanted in female BALB/c mouse assessed as tumor growth inhibition at 10 mg/kg, iv administered upto 5 days; assay type: functional, organism-based; conditions: time <= 5.0 day
4T1 [15] = experiment: Antitumor activity against mouse 4T1 cells implanted in female BALB/c mouse assessed as induction of intracellular ROS accumulation in tumor at 10 mg/kg, iv administered upto 5 days; assay type: functional, organism-based; conditions: time <= 5.0 day
4T1 [16] = experiment: Antitumor activity against mouse 4T1 cells implanted in female BALB/c mouse assessed as increase in phospho PERK level in tumor at 10 mg/kg, iv administered upto 5 days by Western blot analysis; assay type: functional, organism-based; conditions: time <= 5.0 day
4T1 [17] = experiment: Antitumor activity against mouse 4T1 cells implanted in female BALB/c mouse assessed as increase in phospho eIF2alpha level in tumor at 10 mg/kg, iv administered upto 5 days by Western blot analysis; assay type: functional, organism-based; conditions: time <= 5.0 day
4T1 [18] = experiment: Antitumor activity against mouse 4T1 cells implanted in female BALB/c mouse assessed as increase in ATF4 level in tumor at 10 mg/kg, iv administered upto 5 days by Western blot analysis; assay type: functional, organism-based; conditions: time <= 5.0 day
4T1 [19] = experiment: Antitumor activity against mouse 4T1 cells implanted in female BALB/c mouse assessed as increase in CHOP level in tumor at 10 mg/kg, iv administered upto 5 days by Western blot analysis; assay type: functional, organism-based; conditions: time <= 5.0 day
4T1 [20] = experiment: Antitumor activity against mouse 4T1 cells implanted in female BALB/c mouse assessed as increase in 4-HNE level in tumor at 10 mg/kg, iv administered upto 5 days by Western blot analysis; assay type: functional, organism-based; conditions: time <= 5.0 day
4T1 [21] = experiment: Antitumor immunity against mouse 4T1 cells implanted in female BALB/c mouse model assessed as increase in proportion of tumor infiltrating CD8+ T cell at 10 mg/kg, iv administered upto 5 days by flow cytometry analysis; assay type: functional, organism-based; conditions: time <= 5.0 day
4T1 [22] = experiment: Antitumor activity against mouse 4T1 cells implanted in female BALB/c mouse model assessed as increase in IFN-gamma expression in tumor at 10 mg/kg, iv administered upto 5 days; assay type: functional, organism-based; conditions: time <= 5.0 day
4T1 [23] = experiment: Antitumor activity against mouse 4T1 cells implanted in female BALB/c mouse model assessed as reduction in proportion of CD11b+ IL-6+ cells in tumor at 10 mg/kg, iv administered upto 5 days; assay type: functional, organism-based; conditions: time <= 5.0 day
[24] = Toxicity in female BALB/c mouse implanted with mouse 4T1 cells assessed as liver damage at 10 mg/kg, iv; assay type: organism-based; conditions: in vivo
[25] = Toxicity in female BALB/c mouse implanted with mouse 4T1 cells assessed as lung damage at 10 mg/kg, iv; assay type: organism-based; conditions: in vivo
[26] = Toxicity in female BALB/c mouse implanted with mouse 4T1 cells assessed as spleen abnormality at 10 mg/kg, iv; assay type: organism-based; conditions: in vivo
[27] = Toxicity in female BALB/c mouse implanted with mouse 4T1 cells assessed as kidney inflammation at 10 mg/kg, iv; assay type: organism-based; conditions: in vivo
[28] = Toxicity in female BALB/c mouse implanted with mouse 4T1 cells assessed as lung inflammation at 10 mg/kg, iv; assay type: organism-based; conditions: in vivo
[29] = Toxicity in female BALB/c mouse implanted with mouse 4T1 cells assessed as spleen inflammation at 10 mg/kg, iv; assay type: organism-based; conditions: in vivo
[30] = Toxicity in female BALB/c mouse implanted with mouse 4T1 cells assessed as lung lesion at 10 mg/kg, iv; assay type: organism-based; conditions: in vivo
[31] = Toxicity in female BALB/c mouse implanted with mouse 4T1 cells assessed as heart lesion at 10 mg/kg, iv; assay type: organism-based; conditions: in vivo
[32] = Toxicity in female BALB/c mouse implanted with mouse 4T1 cells assessed as spleen lesion at 10 mg/kg, iv; assay type: organism-based; conditions: in vivo
Cisplatin-resistant 4T1 [33] = experiment: Antitumor activity against mouse Cisplatin-resistant 4T1 cells implanted in female BALB/c mouse assessed as reduction in tumor volume at 10 mg/kg, ip; assay type: functional, organism-based
Cisplatin-resistant 4T1 [34] = experiment: Antitumor activity against mouse Cisplatin-resistant 4T1 cells implanted in female BALB/c mouse assessed as reduction in tumor weight at 10 mg/kg, ip; assay type: functional, organism-based
Cisplatin-resistant 4T1 [35] = experiment: Antiproliferative activity against mouse Cisplatin-resistant 4T1 cells assessed as reduction in cell viability incubated for 48 hrs by MTT assay; assay type: functional, cell-based
Cisplatin-resistant 4T1 [36] = experiment: Antitumor activity against mouse Cisplatin-resistant 4T1 cells implanted in female BALB/c mouse assessed as increase in 4-HNE level at 10 mg/kg, ip; assay type: functional, organism-based

CCCCCCC[C@@H]1CC(=O)N[C@H](Cc2ccccc2)C(=O)N[C@H]2CSSC[C@H](NC2=O)C(=O)O1
Activity (MDA-MB-468 [1]): Active
Activity (HEK293): Non-toxic
Activity (MDA-MB-468 [2]): Active
Activity (MDA-MB-468 [3]): Active
Activity (MDA-MB-468 [4]): Active
Activity (MDA-MB-468 [5]): Active
Activity (MDA-MB-468 [6]): Active
Activity (MDA-MB-468 [7]): Active
Activity (MDA-MB-468 [8]): Active
Activity (MDA-MB-468 [9]): Time-dependent-effect
Activity (MDA-MB-468 [10]): Active
Activity (MDA-MB-468 [11]): Active
Activity (4T1 [12]): Active
Activity (4T1 [13]): Active
TGI (4T1 [14]): Active
Activity (4T1 [15]): Active
Activity (4T1 [16]): Active
Activity (4T1 [17]): Active
Activity (4T1 [18]): Active
Activity (4T1 [19]): Active
Activity (4T1 [20]): Active
Activity (4T1 [21]): Active
Activity (4T1 [22]): Active
Activity (4T1 [23]): Active
Activity [24]: Non-toxic
Activity [25]: Non-toxic
Activity [26]: Non-toxic
Activity [27]: Non-toxic
Activity [28]: Non-toxic
Activity [29]: Non-toxic
Activity [30]: Non-toxic
Activity [31]: Non-toxic
Activity [32]: Non-toxic
Activity (Cisplatin-resistant 4T1 [33]): Active
Activity (Cisplatin-resistant 4T1 [34]): Active
Activity (Cisplatin-resistant 4T1 [35]): Active
Activity (Cisplatin-resistant 4T1 [36]): Active
